From PubChem BioAssay AID1963974 (Molecular Pharmacology Branch, DTP, NCI, 2024)
Where “and” joins values, the source holds several entries; their conditions need not be identical. Identical values can stand only once.

Test system: 648629-189-R-J1-PDC spheroids with HUVEC/MSC, viability
Experiment: Anticancer human tumor 648629-189-R-J1-PDC patient-derived bladder carcinoma cell line growth inhibition [PI3K]
Settings: for viability, T/C: stronger effect = lower value
Text: Combinatorial screen of targeted agents with the PI3K inhibitors inavolisib, alpelisib, duvelisib, and copanlisib in multi-cell type tumor spheroids
A high-throughput screen of multi-cell type tumor spheroids was designed to identify active combinations of targeted small molecules and PI3K pathway inhibitors. Complex spheroids include a stromal component modeled by human endothelial cells (HUVEC) and fibroblasts modeled by human mesenchymal stem cells (MSCs). The concentration ranges selected for each drug and investigational agent were based upon clinically achievable concentrations if the clinical Cmax of the agent was known.
Compounds. The drugs and investigational agents: inavolisib (NSC800729), alpelisib (NSC765974), duvelisib (NSC772469), copanlisib (NSC816437), ipatasertib (NSC767898), afuresertib (NSC778305), talazoparib (NSC767125), sapanisertib (NSC764658), selumetinib (NSC741078), tovorafenib (DAY101, NSC766906), vemurafenib (NSC761431), ravoxertinib (NSC781343), sotorasib (NSC818433), MRTX1133 (NSC 836407), abemaciclib (NSC 768073), palbociclib (NSC758247), venetoclax (NSC 766270), SY5609 (NSC837396), enzalutamide (NSC755605), and darolutamide (NSC825331), were obtained from the National Cancer Institute (NCI) Developmental Therapeutics Program Chemical Repository. The FDA-approved anticancer drug set is available from the NCI Developmental Therapeutics Program. […] The stock solutions were prepared in dimethyl sulfoxide (DMSO, Sigma-Aldrich, St. Louis, MO, cat. D2650) at 800-fold the tested concentration and stored at -70 degrees C prior to their use. All drugs and investigational agents were tested over a range starting from a high concentration at or near the clinical Cmax and decreasing in half-log increments. If the clinical Cmax for an agent had not been determined, the highest concentration tested was 10 microM.
Cell Culture. All cells were maintained in an incubator at 37 degrees C and 5% CO2 with 95% humidity. The PDC lines were cultured according to standard operating procedures established by the NCI PDMR (https://pdmr.cancer.gov/sops/default.htm). All PDCs were thawed and cultured in Matrigel-coated flasks prepared with a working solution of 1X Ham's F-12 nutrient mix, without supplementation (Invitrogen, Waltham, MA, cat. 11765054), 100 U/mL penicillin-streptomycin (Invitrogen, cat. 15140122), and 2.5% Matrigel (Corning Inc., Corning, NY, cat. 354248) for the first three passages. The 354836-022-R-J1-PDC, 475296-252-R-J1-PDC, and 997726-040-R-J2-PDC lines were cultured in 6A media, which includes advanced DMEM/F-12 (Thermo Fisher Scientific, cat. 12634028), 10 mM HEPES (Thermo Fisher Scientific, cat. 15630080), 1X GlutaMAX supplement (Thermo Fisher Scientific, cat. 35050061), 0.1 mg/mL primocin (InvivoGen, San Diego, CA, cat. ant-pm-2), 10% defined fetal bovine serum, heat inactivated (HyClone Laboratories Inc., Logan, UT, cat. SH30070.03HI), 50% L-WRN conditioned media (ATCC, cat. CRL-3276), 1.25 mM N-Acetyl-L-cysteine (Sigma-Aldrich, cat. A9165), 10 mM nicotinamide (Sigma-Aldrich, cat. N0636), 1X B-27 supplement (Thermo Fisher Scientific, cat. 17504044), 1X N-2 supplement (Thermo Fisher Scientific, cat. 17502048), and 10 microM Y-27632 dihydrochloride (Tocris Bioscience, Bristol, United Kingdom, cat. 1254). The 624824-186-R-J2-PDC line was cultured in 6C/Colon 1B media, which includes all 6A media components plus 50 ng/mL human EGF recombinant protein (Thermo Fisher Scientific, cat. PHG0311). […]

[1] = curve of first compound, second compound 0.00316 µM
[2] = curve of first compound, second compound 0.01 µM
[3] = curve of first compound, second compound 0.0316 µM
[4] = curve of first compound, second compound 0.1 µM
[5] = curve of first compound, second compound 0.316 µM
[6] = curve of first compound, second compound 1 µM
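Also: spheroids exposed to agents for seven days before reading.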
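For viability, T/C in this document: percent of vehicle control luminescence where 100% = DMSO treated spheroids.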

In the case of `C#Cc1c(F)ccc2cc(O)cc(-c3ncc4c(N5CC6CCC(C5)N6)nc(OCC56CCCN5CC(F)C6)nc4c3F)c12` (stereo not drawn), the viability, T/C (compound 0.0316 µM) is reported as 105% [middle of 4 runs], the viability, T/C (compound 0.316 µM) is reported as 111% and 104% (2×) and 105% and the viability, T/C (compound 1 µM) is reported as 104% [middle of 4 runs]. For the same compound, the viability, T/C (compound 3.16 µM) was 107% [middle of 4 runs], the viability, T/C (compound 10 µM) was 108% and 105% (2×) and 101% and the IC50 (curve of compound) was > 10 µM.
For `C=CC(=O)N1CCN(c2nc(=O)n(-c3c(C)ccnc3C(C)C)c3nc(-c4c(O)cccc4F)c(F)cc23)C(C)C1` (stereo not drawn), the viability, T/C (compound 0.0316 µM) was 112% [middle of 4 runs], the viability, T/C (compound 0.1 µM) was 103% (2×) and 102% and 99.5% and the viability, T/C (compound 0.316 µM) was 110% and 107% (2×) and 100%. The viability, T/C (compound 1 µM) was 109% [middle of 4 runs], the viability, T/C (compound 3.16 µM) was 105% [middle of 4 runs] and the viability, T/C (compound 10 µM) was 96% [middle of 4 runs]. The IC50 (curve of compound) was > 10 µM.
For `Cn1ncc(Cl)c1-c1cc(C(=O)NC(CN)Cc2cccc(F)c2)sc1Cl` (stereo not drawn), the viability, T/C (compound 0.0316 µM) was 111% [middle of 4 runs], the viability, T/C (compound 0.1 µM) was 86.8% [middle of 4 runs] and the viability, T/C (compound 0.316 µM) was 72.9% [middle of 4 runs]. The viability, T/C (compound 1 µM) was 35.3% [middle of 4 runs], the viability, T/C (compound 3.16 µM) was 25% [middle of 4 runs] and the IC50 (curve of compound) was 818 nM [middle of 4 runs].
`CNC(=O)c1ccc(N2C(=S)N(c3ccc(C#N)c(C(F)(F)F)c3)C(=O)C2(C)C)cc1F` + CC(Nc1ccc2c(c1)OCCn1cc(N3C(=O)OCC3C(F)F)nc1-2)C(N)=O was tested, and the IC50 [1] was > 10 µM, the IC50 [2] was > 10 µM and the IC50 [3] was > 10 µM. For the same compound, the IC50 [4] was > 10 µM, the IC50 [5] was > 10 µM and the IC50 [6] was > 10 µM. It also gave a viability, T/C (second compound 0.00316 µM, first compound 0.0316 µM) of 107%, a viability, T/C (second compound 0.00316 µM, first compound 0.1 µM) of 96.5% and a viability, T/C (second compound 0.00316 µM, first compound 0.316 µM) of 107%. It also gave a viability, T/C (second compound 0.00316 µM, first compound 1 µM) of 97.6%, a viability, T/C (second compound 0.00316 µM, first compound 3.16 µM) of 110% and a viability, T/C (second compound 0.00316 µM, first compound 10 µM) of 83.4%. It also gave a viability, T/C (second compound 0.01 µM, first compound 0.0316 µM) of 99.6%, a viability, T/C (second compound 0.01 µM, first compound 0.1 µM) of 109% and a viability, T/C (second compound 0.01 µM, first compound 0.316 µM) of 97.2%. For the same compound, the viability, T/C (second compound 0.01 µM, first compound 1 µM) was 98.1%, the viability, T/C (second compound 0.01 µM, first compound 3.16 µM) was 94.8% and the viability, T/C (second compound 0.01 µM, first compound 10 µM) was 87.1%. It also gave a viability, T/C (second compound 0.0316 µM, first compound 0.0316 µM) of 103%, a viability, T/C (second compound 0.0316 µM, first compound 0.1 µM) of 107% and a viability, T/C (second compound 0.0316 µM, first compound 0.316 µM) of 102%. The viability, T/C (second compound 0.0316 µM, first compound 1 µM) was 101%, the viability, T/C (second compound 0.0316 µM, first compound 3.16 µM) was 90.5% and the viability, T/C (second compound 0.0316 µM, first compound 10 µM) was 78.5%. It also gave a viability, T/C (second compound 0.1 µM, first compound 0.0316 µM) of 93%, a viability, T/C (second compound 0.1 µM, first compound 0.1 µM) of 94.8% and a viability, T/C (second compound 0.1 µM, first compound 0.316 µM) of 102%. The viability, T/C (second compound 0.1 µM, first compound 1 µM) was 102%, the viability, T/C (second compound 0.1 µM, first compound 3.16 µM) was 88% and the viability, T/C (second compound 0.1 µM, first compound 10 µM) was 79.2%. It also gave a viability, T/C (second compound 0.316 µM, first compound 0.0316 µM) of 83.4%, a viability, T/C (second compound 0.316 µM, first compound 0.1 µM) of 79.1% and a viability, T/C (second compound 0.316 µM, first compound 0.316 µM) of 93%. The viability, T/C (second compound 0.316 µM, first compound 1 µM) was 75.5%, the viability, T/C (second compound 0.316 µM, first compound 3.16 µM) was 84.3% and the viability, T/C (second compound 0.316 µM, first compound 10 µM) was 68%. For the same compound, the viability, T/C (second compound 1 µM, first compound 0.0316 µM) was 69.7%, the viability, T/C (second compound 1 µM, first compound 0.1 µM) was 67.5% and the viability, T/C (second compound 1 µM, first compound 0.316 µM) was 72.1%. It also gave a viability, T/C (second compound 1 µM, first compound 1 µM) of 63.7%, a viability, T/C (second compound 1 µM, first compound 3.16 µM) of 75.4% and a viability, T/C (second compound 1 µM, first compound 10 µM) of 68%.
With `Cn1cnc2c(F)c(Nc3ccc(Br)cc3Cl)c(C(=O)NOCCO)cc21` + CC(Nc1ccc2c(c1)OCCn1cc(N3C(=O)OCC3C(F)F)nc1-2)C(N)=O the IC50 [1] was > 3 µM, the IC50 [2] was > 3 µM and the IC50 [3] was > 3 µM. For the same compound, the IC50 [4] was > 3 µM, the IC50 [5] was > 3 µM and the IC50 [6] was > 3 µM. The viability, T/C (second compound 0.00316 µM, first compound 0.00949 µM) was 95.5%, the viability, T/C (second compound 0.00316 µM, first compound 0.03 µM) was 103% and the viability, T/C (second compound 0.00316 µM, first compound 0.0949 µM) was 99.2%. It also gave a viability, T/C (second compound 0.00316 µM, first compound 0.3 µM) of 91.8%, a viability, T/C (second compound 0.00316 µM, first compound 0.949 µM) of 94.4% and a viability, T/C (second compound 0.00316 µM, first compound 3 µM) of 81.6%. For the same compound, the viability, T/C (second compound 0.01 µM, first compound 0.00949 µM) was 93.4%, the viability, T/C (second compound 0.01 µM, first compound 0.03 µM) was 91.2% and the viability, T/C (second compound 0.01 µM, first compound 0.0949 µM) was 92.9%. The viability, T/C (second compound 0.01 µM, first compound 0.3 µM) was 91.8%, the viability, T/C (second compound 0.01 µM, first compound 0.949 µM) was 103% and the viability, T/C (second compound 0.01 µM, first compound 3 µM) was 81.1%. The viability, T/C (second compound 0.0316 µM, first compound 0.00949 µM) was 98.5%, the viability, T/C (second compound 0.0316 µM, first compound 0.03 µM) was 96.2% and the viability, T/C (second compound 0.0316 µM, first compound 0.0949 µM) was 87.5%. The viability, T/C (second compound 0.0316 µM, first compound 0.3 µM) was 89.3%, the viability, T/C (second compound 0.0316 µM, first compound 0.949 µM) was 95.2% and the viability, T/C (second compound 0.0316 µM, first compound 3 µM) was 79.2%. It also gave a viability, T/C (second compound 0.1 µM, first compound 0.00949 µM) of 90.7%, a viability, T/C (second compound 0.1 µM, first compound 0.03 µM) of 91.7% and a viability, T/C (second compound 0.1 µM, first compound 0.0949 µM) of 82.6%. For the same compound, the viability, T/C (second compound 0.1 µM, first compound 0.3 µM) was 92.2%, the viability, T/C (second compound 0.1 µM, first compound 0.949 µM) was 93.9% and the viability, T/C (second compound 0.1 µM, first compound 3 µM) was 75.8%. The viability, T/C (second compound 0.316 µM, first compound 0.00949 µM) was 81.1%, the viability, T/C (second compound 0.316 µM, first compound 0.03 µM) was 79.2% and the viability, T/C (second compound 0.316 µM, first compound 0.0949 µM) was 70.3%. The viability, T/C (second compound 0.316 µM, first compound 0.3 µM) was 78.5%, the viability, T/C (second compound 0.316 µM, first compound 0.949 µM) was 74.3% and the viability, T/C (second compound 0.316 µM, first compound 3 µM) was 69.1%. It also gave a viability, T/C (second compound 1 µM, first compound 0.00949 µM) of 66.1%, a viability, T/C (second compound 1 µM, first compound 0.03 µM) of 70.4% and a viability, T/C (second compound 1 µM, first compound 0.0949 µM) of 66.4%. It also gave a viability, T/C (second compound 1 µM, first compound 0.3 µM) of 96.4%, a viability, T/C (second compound 1 µM, first compound 0.949 µM) of 66% and a viability, T/C (second compound 1 µM, first compound 3 µM) of 51%.
